The structures appear in SMILES notation. Residues, ends and D or L forms follow the SMILES beside them. *: point of attachment. Cbz = O=C(OCc1ccccc1)* Some results are limits rather than exact numbers.

As a reminder, the melting point is the temperature, or range, at which the solid turns liquid. `Fc1ccc(Nc2ncnc3cnc(NCCN4CCNCC4)nc23)cc1Cl` returned a melting point of 173 to 175 °C. The molecule `Clc1ccc2c(C3CCN(CCCC4Cc5ccccc5C4)CC3)c[nH]c2c1` returned a melting point of 134 to 135 °C. `CC(C#Cc1ccc(C=Cc2cccnc2)o1)N(O)C(N)=O` (stereo not drawn) registered a melting point of 166 °C.

Molecule `Cc1nc2scc(C)n2c(=O)c1CCN1CCC(C2(c3ccc(F)cc3)OCCO2)CC1` registered a melting point of 140 °C. As to `O=C(c1ccc(Cl)cc1)c1cc(C2(Nc3ccccc3)OCCO2)ccn1`, the melting point lay in the range of 102 to 103 °C.

Molecule `CCc1cc(C(C)=O)c(O)cc1OCCCCCC(C)(C)C(N)=O` registered a melting point of 73 to 74 °C.

Consider `COc1cc2ncc(C#N)c(Nc3ccccc3C)c2cc1OC`, for which the melting point is 137 to 141 °C.

Turning to `Clc1ccccc1C(c1ccccc1)(c1ccccc1)n1cccn1`, the melting point is 135 °C.

In turn, `COCCOC(=O)N=NC(=O)OCCOC` gave a melting point of 39.9 to 40.4 °C.

With `Clc1ccc2c(c1)CCC(c1ccccc1)O2` (stereo not drawn), the melting point fell in the range of 71 to 72 °C. The molecule `Cc1cncc2cccc(S(=O)(=O)Cl)c12` yielded a melting point of 113 to 118 °C. To `O=C(O)CCc1nc(C(=O)O)ccc1O` belongs 210 to 212 °C; to `O=C(O)C1CSC(c2ccccc2OCCCCO[N+](=O)[O-])N1` (stereo not drawn), 108 to 110 °C; to `O=C(Nc1ccc(N2CCOCC2=O)cc1)[C@H]1C=CCN1C(=O)Nc1ccc(Cl)cc1`, 245 °C. With `CCCCCCCCC(=O)OCC(O)COC(=O)CCCCCCCC`, the melting point is 30 to 31 °C.

Regarding `CCOC(=O)C=Cc1ccc(NC(=O)CC)cc1`, the melting point came out at 138 °C.

Consider `CCNC1(c2ccccc2Cl)C(=O)N(Cc2ccc(C(=O)NC(C)(C)C)cc2)c2ccc(Cl)cc21` (stereo not drawn), for which the melting point was in the range of 190 to 195 °C. In the case of `Cc1c(C(=O)N(C)c2ccc(N3CCC(O)CC3)c(C#N)c2)cnn1-c1ccc(F)cc1`, the melting point was 211 to 212 °C. To `C=Cc1ccc(S(=O)(=O)On2nnc3ccc(C=C)cc32)cc1` belongs 85 to 87 °C. To `CCCCCc1ccc2c(c1)Cc1cc(CCCCC)ccc1-2` belongs 98.9 to 99.6 °C. To `CCOC(=O)c1cn(-c2ccc(Oc3ccccc3)cc2)cn1` belongs 113 to 114 °C; to `O=C(Nc1cc(CN2CCOCC2)c(O)c(CN2CCOCC2)c1)c1ccccc1`, 152 to 154 °C. `CCOC(=O)c1csnc1-c1ccc(OC)c(OC)c1` came in with a melting point of 74 to 75.5 °C. Next, `CC(=O)C(C)=Cc1cc(O)c(O)c([N+](=O)[O-])c1`: 139 to 141 °C; `C=CCOC(=O)Nc1cc(-c2cccc(Cl)c2)sc1C(C)(C)O`: 60 to 61 °C.

`C[C@]1(COc2ccc(N3CCN(Cc4ccc(OC(F)(F)F)cc4)CC3)cc2)Cn2cc([N+](=O)[O-])nc2O1` showed a melting point of 214 to 217 °C.

As to `CC(C)Cn1c(CNC(=O)OC(C)(C)C)c(-c2cccc(F)c2)c2cc(C(=O)O)ccc2c1=O`, the melting point is 206 to 207 °C. In the case of `Nc1ncnc2c1c(-c1cn[nH]c1)nn2Cc1oc2ccccc2c(=O)c1-c1ccccc1`, the melting point lay in the range of 235 to 237 °C. For the molecule `Cn1c(-c2ccc(N3CCOCC3)cc2)cnc1[C@H](Cc1ccccn1)N(C=O)c1cc2cc(F)ccc2o1`, the melting point lay within 130 to 132 °C. Molecule `O=C(OCc1cc(OCCCO)c(OCCCO)c(OCCCO)c1)c1ccccc1` gave a melting point of 54 to 55 °C. The molecule `Cc1oc(-c2ccco2)nc1COc1ccc(COc2nn(Cc3ccccc3)cc2C(=O)O)cc1-c1ccccc1` gave a melting point of 181 to 182 °C.

On to `O=C(Cc1ccc(Cl)cc1)N1CCCCC1`, for which the melting point fell in the range of 85 to 85.5 °C.

On to `CN1CCN(CCCOc2ccccc2Nc2nc(C#N)nc3c2ncn3C2CCCC2)CC1`, for which the melting point lay within 136 to 138 °C.

`CC(=O)Oc1c(C=C(C#N)C#N)[nH]c2ccccc12` registered a melting point of 210 to 212 °C. Next, `CCC1CCCCN1C(=O)C=Cc1c(-c2cccc(N(C)C)c2)nn2ccccc12` (stereo not drawn): 180 to 184 °C; `CNC1CCN(c2nc3c(cc2F)c(=O)c(C(=O)O)cn3CCF)C1` (stereo not drawn): 243 to 245 °C; `COc1cc(OC)nc(C(C(N)=O)c2cccc(Cl)c2)n1` (stereo not drawn): 118 to 119 °C.

Molecule `Fc1ccc(C2=CCC(N3CCN(Cc4ccc5ccccc5n4)CC3)CC2)cc1` (stereo not drawn) returned a melting point of 111 to 114 °C.

Take `O=C(Nc1cccc2ccccc12)c1ccn2c1CSC2c1cccnc1` (stereo not drawn): the melting point worked out at 136 °C. `OC(Cn1cncn1)(c1ccccc1)C1OC1c1ccccc1Cl` (stereo not drawn) had a melting point of 180 to 182 °C. For `CCCCCCCCCCCC(=O)NC(=O)N1CC1C#N` (stereo not drawn), the melting point lay in the range of 140 to 143 °C. For `CCn1c(=O)c2c(nc(/C=C/c3ccc(OC(=O)c4ccccc4)cc3)n2C)n(CC)c1=O`, the melting point fell in the range of 208 to 209 °C. `COc1ccc(OC)c2c1CC[C@](O)(C(C)=O)C2` showed a melting point of 117 to 120 °C.

Consider `Cc1nn(-c2ccccc2)nc1C(=O)N1CCC2(CC1)CSC1=C(O2)c2ccccc2C(=O)C1=O`, for which the melting point lay within 275 to 280 °C.

Turning to `CC(C)C[C@@H](O)CC(=O)O`, the melting point worked out at 86 °C. The molecule `CN1C(=O)CN(c2cccc(I)c2)NC1=O` registered a melting point of 180 °C.

Turning to `O=C(O)Cc1ccc(OCc2ccc(Cl)cc2C(=O)O)cc1`, the melting point was in the range of 205 to 208 °C. `CCNC(=O)c1nnc(S)o1` showed a melting point of 210 °C. `CN1C(=O)CC[C@]2(C)c3ccc(C(=O)OC(c4ccccc4)c4ccccc4)cc3CC[C@@H]12`: the melting point lay in the range of 130 to 131 °C. Consider `COC(=O)/C=C/C=C(\c1ccccc1)c1ccc(OC)cc1`, for which the melting point lay within 88 to 89.5 °C. To `CCC(C)(C)Nc1c(NCc2cccc(C)c2C)c(=O)c1=O` belongs 196 to 198 °C. Next, `CC(C)(CCCCCCCCC(C)(C)NC(=O)Cc1cc(C(C)(C)C)c(O)c(C(C)(C)C)c1)NC(=O)Cc1cc(C(C)(C)C)c(O)c(C(C)(C)C)c1`: 168 °C; `CCOC(=O)c1ccc(-c2cc3c(Nc4ccc(F)c(Cl)c4)ncnc3[nH]2)cc1`: over 300 °C; `O=C(Nc1nccs1)C(CC1CCCC1)c1ccc(NS(=O)(=O)C(F)(F)F)cc1` (stereo not drawn): 70 to 74 °C. As to `CS(=O)(=O)c1ccc(C2=C(c3ccc(F)c(F)c3)CCC2)cc1`, the melting point fell in the range of 114 to 115 °C.

Molecule `O=c1oc(-c2ccccc2)cc(O)c1SCCc1cccc(Cl)c1` showed a melting point of 133 to 134 °C. On to `Oc1ccc(-c2ccc(-c3c(Cc4ccccc4)sc4ccccc34)cc2)cc1Br`, for which the melting point was in the range of 54 to 56 °C. Regarding `CCOC(=O)c1cc2c3ccccc3n(CCCc3ccccc3)c2cn1`, the melting point lay within 140 to 142 °C. Next, `COC(=O)[C@H](Cc1ccccc1)NC(=O)[C@H](CC(=O)O)NC(=O)OCc1ccccc1` (Cbz-Asp-Phe-OMe): 113 to 116 °C; `CC(C)OC(=O)CCC1CCCCC1(c1ccc(O)c(C(C)(C)C)c1)c1ccc(O)c(C(C)(C)C)c1` (stereo not drawn): 172 °C.

Regarding `O=CN[C@H]1CC[C@H](CCN2CCC(c3cccc4c3CCO4)CC2)CC1`, the melting point is 142 °C. Next, `CCCCCC1=CN(N)C2=NC(O)N(CCCNC(C)=O)C2=C1` (stereo not drawn): 189 to 191 °C; `CCCCOc1ccc(S(=O)(=O)C2(C(=O)O)CCN(Cc3ccc(OCCN4CCCCC4)cc3)CC2)cc1`: 98 °C.

Turning to `CCCCC(=O)Nc1cccc(-n2nc(CCCC)n(Cc3ccc(-c4ccccc4S(=O)(=O)NC(=O)c4ccccc4Cl)cc3)c2=O)c1`, the melting point was in the range of 102 to 105 °C. `CCOC(=O)c1ccc(-c2ccc(OCCCI)c(-c3ccc4c(c3)C(C)(C)CCC4(C)C)c2)cc1` came in with a melting point of 118 °C. With `Cc1c(Cl)ccc(N(C)C(=O)CN2C(=O)c3ccccc3C2=O)c1Cl`, the melting point is 193 to 194 °C. For the molecule `OC1CC(NCc2ccccc2)c2ccccc21` (stereo not drawn), the melting point was 125 to 127 °C. Molecule `Cc1nc2ccccn2c1C1=NNC(=O)CO1` returned a melting point of 278 to 280 °C.

`O=C(c1ccc([N+](=O)[O-])cc1Cl)N1CCCCc2ncccc21` came in with a melting point of 143 to 145 °C. `CNC(=O)C(C)CCn1c(COc2ccc(Cl)cc2)nc2c(C)cccc21` (stereo not drawn) came in with a melting point of 168 °C. The molecule `CC(=O)c1cnc2c(n1)C(C)(C)CCC2(C)C` gave a melting point of 68 to 69 °C. On to `Cc1cc2c(cc1C(F)(F)F)N(C(=O)Nc1cnc(OCc3ccccn3)c(C)c1)CC2`, for which the melting point fell in the range of 188 to 189 °C.

On to `O=C(O)c1ccc(CCCC2SCC(=O)N2CCC2(O)CCCC2)cc1` (stereo not drawn), for which the melting point fell in the range of 149 to 150 °C. `CC(=O)NC(C)(C)c1ccc(CO)cc1` came in with a melting point of 126 to 129 °C.

The molecule `CCCc1c(C(=O)C(C)C)c2ccc(C(N)=O)cc2n1Cc1ccccc1C` registered a melting point of 190 to 191 °C. `COC(=O)c1sccc1Nc1ccnc2c(Cl)cccc12` had a melting point of 226 °C.

Take `Cn1nnnc1-c1nccn1Cc1ccccc1`: the melting point was in the range of 110 to 111 °C. Next, `COCCNC(=O)c1n[nH]c2c(=O)[nH]c3cc(Cl)ccc3c(=O)c12`: 287 to 291 °C; `CC(C)(C)OC(=O)CN(C(=O)CCl)c1ccccc1`: 86 °C; `CCNc1nc(NS(=O)(=O)c2ccc(N)cc2)cc(N2CCC2)n1`: 292 to 293 °C. `CCOC(=O)C1=C(C)NN=C(C(=O)OC)C1c1cccc(Cl)c1` (stereo not drawn) displayed a melting point of 139 °C.

In the case of `CCOC(=O)CC(c1ccccc1)C(C#N)c1ccccc1` (stereo not drawn), the melting point fell in the range of 60.5 to 63 °C. On to `C=C1N(CCCC)C(=O)OC12CCN(CCC=C(c1ccc(F)cc1)c1ccc(F)cc1)CC2`, for which the melting point was in the range of 92 to 93 °C. On to `CC=CC=NNC(=O)c1cnccn1`, for which the melting point fell in the range of 192 to 194 °C. Molecule `Cc1ccc(-c2ccc(CCCCC(=O)O)s2)cc1` yielded a melting point of 124 to 127 °C. For `CNS(=O)(=O)C[C@H]1c2cc(OCCCC(F)(F)F)ccc2OC(C)(C)[C@@H]1O`, the melting point is 178 to 179 °C. `Nc1cc(-c2noc(-c3cnn4ccc(-c5ccc(C(F)(F)F)cc5)nc34)n2)ccn1` displayed a melting point of 250 °C. `CC(Oc1ccc(CNC(=O)c2cccnc2Oc2ccc3c(c2)OCO3)c(F)c1)C(=O)O` (stereo not drawn) came in with a melting point of 136 to 138 °C.

The record behind these values is a melting point compilation (Tetko et al.; mined from patent text by program, amines drawn as free bases though some values may be those of a salt).
